Tested on: sorted NKX2-1GFP+ epithelial lung progenitors
Assay: Purified NKX2-1GFP+ lung progenitors replated in 3D culture with or without CHIR, day 14 to 20
Assay type: cell-based, human
Description: Cells grown in two-dimensional culture were harvested by incubation with 0.05% Trypsin-EDTA for 10-20 minutes at 37° C. Cells cultured in three-dimensional growth factor reduced Matrigel were harvested by incubation with 2 mg/mL dispase (ThermoFisher) for 30-60 minutes at 37° C. then subsequent incubation with 0.05% trypsin at 37° C. until a single cell suspension was achieved. Cells were washed with media containing 10% fetal bovine serum (FBS, ThermoFisher.) Harvested cells were spun at 300 RCF for 5 minutes at 4° C. and resuspended in buffer containing Hank's Balanced Salt Solution (ThermoFisher), 2% FBS and 10 μM Y-27632 (Tocris) and stained with propidium iodide (ThermoFisher) or calcein blue AM (ThermoFisher) for dead cell exclusion during flow cytometry. Live cells were sorted on a high speed cell sorter (MoFlo Legacy, Beckman Coulter, Pasadena, Calif.) at the Boston University Medical Center Flow Cytometry Core Facility based on NKX2-1GFP expression or by staining for CD47 (Biolegend) and CD26 (Biolegend) and gating for CD47^hi/CD26^−. […]
The final protocol for generating rapidly proximalized NKX2-1+ lung epithelium was replating unsorted or sorted cells for 4 days of culture post-specification in cSFDM containing 10 ng/mL FGF10. […] Cells were analyzed for expression of proximal markers 4 days post-replating in FGF10 media.
The inventors next assessed whether the effect of CHIR manipulation on proximodistal lung patterning was intrinsic to lung epithelial cells rather than due to secondary or bystander effects. […] By day 20, the sorted cells formed small spheres coexpressing NKX2-1 and EPCAM (FIG. 3B-3C). >90% of all outgrowth cells in either culture conditioned maintained NKX2-1^GFP (+CHIR: 98.2±0.5%−CHIR: 93.4±2.3%) (FIG. 3D-3E) and cells in each condition formed organoids with no measured statistical difference in efficiency.

[1] = withdrawal of CHIR, re-sorted NKX2-1GFP+ cells at day 20

Structure (SMILES): Cc1c[nH]c(-c2cnc(NCCNc3ccc(C#N)cn3)nc2-c2ccc(Cl)cc2Cl)n1 [CHIR, CHIR99021]
- outgrowth cells maintaining NKX2-1GFP on day 20 (+CHIR day 14-20, 3D culture of sorted cells, flow cytometry, −CHIR: 93.4±2.3%): 98.2±0.5%
- expression of distal lung genes SOX9 and ETV5 [1]: downregulation
- expression of proximal lung genes SOX2, SCGB3A2, TP63 [1]: upregulation
